These results are taken from ChEMBL document CHEMBL2062402, “Discovery of HDAC Inhibitors That Lack an Active Site Zn(2+)-Binding Functional Group” (ACS Med Chem Lett, 2012).

Where a SMILES comes first, the peptide text is derived from it. [ ]: non-standard residue; d: D form. β3hL = CC(C)C[C@H](N)CC(=O)O; Nva = CCC[C@H](N)C(=O)O

In series [1] the target is T1, Histone deacetylase 2 (Homo sapiens, UniProt Q92769). The experiment in a line: Ratio of IC50 for valproic acid to compound for recombinant HDAC2 using Ac-Lys(Ac)-AMC as substrate after 30 mins by fluorescence analysis.
In series [2] the target is T2, Histone deacetylase 3/Nuclear receptor corepressor 2 (HDAC3/NCoR2) (Homo sapiens) (UniProt O15379+Q9Y618). The series is described as follows: Ratio of IC50 for valproic acid to compound for recombinant HDAC3/NCoR2 using Ac-Lys(Ac)-AMC as substrate after 30 mins by fluorescence analysis. In kind it is protein-complex assay.
The target in series [3] is T2, Histone deacetylase 3/Nuclear receptor corepressor 2 (HDAC3/NCoR2) (Homo sapiens). The experiment in a line: Inhibition of recombinant HDAC3/NCoR2 at 1 uM. The class given is protein-complex assay.
A short description of a further series: in vitro. The settings on record: human, HEK293 cells.
Series [4] concerns the target T1, Histone deacetylase 2. The series is described as follows: Competitive inhibition of HDAC2 using Ac-Lys(Ac)-AMC as substrate by Lineweaver-Burk plot analysis.
Another series relates to Jurkat. The series is described as follows: cells. The note with it: Homo sapiens, 72 h. In kind it is functional.
The subject of the next series is MCF7. The experiment in a line: cells. The class given is functional. The note with it: Homo sapiens, MCF7, 72 h.
For series [5], the target named is T3, Histone deacetylase 3/Nuclear receptor corepressor 2 (HDAC3/NCoR2) (Homo sapiens, UniProt O15379). The series is described as follows: Inhibition of recombinant HDAC3/NCoR2 using Ac-Lys(Ac)-AMC as substrate after 30 mins by fluorescence analysis. The class given is protein-complex assay.
Series [6] has as its target T4, Histone deacetylase 1 (Homo sapiens, UniProt Q13547). The experiment in a line: Competitive inhibition of HDAC1 using Ac-Lys(Ac)-AMC as substrate by Lineweaver-Burk plot analysis.
The test system of another series is HeLa. The series is described as follows: cells. In kind it is functional. The note with it: Homo sapiens, 72 h.
Another series relates to HL-60. The series is described as follows: cells. In kind it is functional. The note with it: Homo sapiens, HL-60, 72 h.
For series [7], the target named is T5, Protein deacetylase HDAC6 (Homo sapiens, UniProt Q9UBN7).
T5 sequence (Q9UBN7 whole entry): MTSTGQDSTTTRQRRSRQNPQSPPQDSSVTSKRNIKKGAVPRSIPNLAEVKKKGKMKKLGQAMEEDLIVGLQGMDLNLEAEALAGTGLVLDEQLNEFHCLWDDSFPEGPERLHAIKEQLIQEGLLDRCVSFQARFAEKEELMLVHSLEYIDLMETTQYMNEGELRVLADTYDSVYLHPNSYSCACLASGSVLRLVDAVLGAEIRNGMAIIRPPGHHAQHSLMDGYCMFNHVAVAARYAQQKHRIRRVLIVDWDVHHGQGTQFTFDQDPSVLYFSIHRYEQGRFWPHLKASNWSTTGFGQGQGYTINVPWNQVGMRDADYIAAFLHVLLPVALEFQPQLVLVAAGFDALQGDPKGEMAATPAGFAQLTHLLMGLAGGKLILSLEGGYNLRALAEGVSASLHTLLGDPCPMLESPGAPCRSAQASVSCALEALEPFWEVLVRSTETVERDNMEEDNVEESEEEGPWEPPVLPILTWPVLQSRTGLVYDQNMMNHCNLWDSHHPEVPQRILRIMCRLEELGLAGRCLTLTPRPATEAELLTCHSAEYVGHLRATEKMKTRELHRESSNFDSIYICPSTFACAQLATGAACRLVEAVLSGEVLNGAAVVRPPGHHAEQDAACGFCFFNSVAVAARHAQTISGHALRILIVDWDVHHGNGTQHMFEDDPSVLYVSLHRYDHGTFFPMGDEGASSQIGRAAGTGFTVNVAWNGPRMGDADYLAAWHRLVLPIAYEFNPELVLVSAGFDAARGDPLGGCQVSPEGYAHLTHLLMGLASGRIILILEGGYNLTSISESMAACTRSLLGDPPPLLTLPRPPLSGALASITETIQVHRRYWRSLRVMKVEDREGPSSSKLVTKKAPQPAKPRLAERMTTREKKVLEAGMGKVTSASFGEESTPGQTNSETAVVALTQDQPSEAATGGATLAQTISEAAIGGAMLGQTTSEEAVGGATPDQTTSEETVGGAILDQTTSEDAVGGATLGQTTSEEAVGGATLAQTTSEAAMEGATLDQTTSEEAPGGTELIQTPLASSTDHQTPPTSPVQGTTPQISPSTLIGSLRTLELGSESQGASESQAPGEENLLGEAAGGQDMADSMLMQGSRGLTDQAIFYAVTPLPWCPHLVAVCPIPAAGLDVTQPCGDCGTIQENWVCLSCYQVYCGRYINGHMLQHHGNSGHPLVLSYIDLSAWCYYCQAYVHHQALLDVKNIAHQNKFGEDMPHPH
The series is described as follows: Inhibition of recombinant HDAC6 using Ac-Lys(Ac)-AMC as substrate after 30 mins by fluorescence analysis.

Series [8] addresses Histone deacetylase (Homo sapiens) (UniProt Q13547+O15379+Q9UBN7+Q92769+Q9UQL6+Q8WUI4+Q9BY41+Q96DB2+P56524+Q9UKV0+Q969S8). The experiment in a line: Inhibition of HDAC in human Jurkat cells assessed as increase in acetylated histone H3 after 24 hrs by Western blot analysis. The class given is cell-based.
Series [9] is described as follows: Ratio of IC50 for valproic acid to compound for recombinant using Ac-Lys(Ac)-AMC as substrate after 30 mins by fluorescence analysis. The note with it: Homo sapiens.
In series [10] the target is T4, Histone deacetylase 1. The experiment in a line: Inhibition of recombinant HDAC1 using Ac-Lys(Ac)-AMC as substrate after 30 mins by fluorescence analysis.
Series [11] concerns the target T1, Histone deacetylase 2. The series is described as follows: Inhibition of recombinant HDAC2 using Ac-Lys(Ac)-AMC as substrate after 30 mins by fluorescence analysis.
The target in series [12] is T6, Protein deacetylase HDAC6 (Homo sapiens) (UniProt Q9UBN7).
T6 sequence (whole entry): T5 sequence (Q9UBN7 whole entry)
The experiment in a line: Inhibition of recombinant HDAC6 using Ac-Lys(Ac)-AMC as substrate at 20 uM after 30 mins by fluorescence analysis.

Series [13] has as its target T3, Histone deacetylase 3/Nuclear receptor corepressor 2 (HDAC3/NCoR2). The series is described as follows: Competitive inhibition of HDAC3/NCoR2 using Ac-Lys(Ac)-AMC as substrate by Lineweaver-Burk plot analysis. The class given is protein-complex assay.
Series [14] deals with T4, Histone deacetylase 1. The series is described as follows: Ratio of IC50 for valproic acid to compound for recombinant HDAC1 using Ac-Lys(Ac)-AMC as substrate after 30 mins by fluorescence analysis.
Series [15] in a line: Growth inhibition of human HEK293 cells at 100 uM after 72 hrs by XTT assay. In kind it is cell-based. The settings on record: read-out: GI.

T1 sequence (Q92769 whole entry): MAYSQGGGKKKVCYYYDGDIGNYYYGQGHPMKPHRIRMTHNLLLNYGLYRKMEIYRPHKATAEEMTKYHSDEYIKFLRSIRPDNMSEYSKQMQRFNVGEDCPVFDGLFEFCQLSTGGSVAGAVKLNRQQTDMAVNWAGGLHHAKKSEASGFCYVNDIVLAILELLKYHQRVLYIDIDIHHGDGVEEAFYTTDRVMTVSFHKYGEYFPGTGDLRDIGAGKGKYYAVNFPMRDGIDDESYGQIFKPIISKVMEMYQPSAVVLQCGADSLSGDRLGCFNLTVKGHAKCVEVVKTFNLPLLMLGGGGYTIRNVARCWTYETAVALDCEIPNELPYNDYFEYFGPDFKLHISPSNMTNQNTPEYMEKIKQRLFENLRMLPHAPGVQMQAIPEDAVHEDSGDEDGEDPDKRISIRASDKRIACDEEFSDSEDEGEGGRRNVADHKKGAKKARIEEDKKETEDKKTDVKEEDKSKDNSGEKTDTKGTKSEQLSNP
T3 sequence (O15379 whole entry): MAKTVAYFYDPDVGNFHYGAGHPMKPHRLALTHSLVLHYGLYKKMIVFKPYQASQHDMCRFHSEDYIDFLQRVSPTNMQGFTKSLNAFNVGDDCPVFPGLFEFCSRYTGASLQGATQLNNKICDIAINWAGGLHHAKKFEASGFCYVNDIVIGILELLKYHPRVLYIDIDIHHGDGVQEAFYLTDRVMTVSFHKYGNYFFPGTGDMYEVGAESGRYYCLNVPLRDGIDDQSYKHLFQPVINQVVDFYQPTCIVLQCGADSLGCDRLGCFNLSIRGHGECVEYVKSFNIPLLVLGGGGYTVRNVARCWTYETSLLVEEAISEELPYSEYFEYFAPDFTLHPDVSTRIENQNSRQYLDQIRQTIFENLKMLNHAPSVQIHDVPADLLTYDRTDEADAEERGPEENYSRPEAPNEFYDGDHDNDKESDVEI
T3 sequence (Q9Y618 whole entry, further chain): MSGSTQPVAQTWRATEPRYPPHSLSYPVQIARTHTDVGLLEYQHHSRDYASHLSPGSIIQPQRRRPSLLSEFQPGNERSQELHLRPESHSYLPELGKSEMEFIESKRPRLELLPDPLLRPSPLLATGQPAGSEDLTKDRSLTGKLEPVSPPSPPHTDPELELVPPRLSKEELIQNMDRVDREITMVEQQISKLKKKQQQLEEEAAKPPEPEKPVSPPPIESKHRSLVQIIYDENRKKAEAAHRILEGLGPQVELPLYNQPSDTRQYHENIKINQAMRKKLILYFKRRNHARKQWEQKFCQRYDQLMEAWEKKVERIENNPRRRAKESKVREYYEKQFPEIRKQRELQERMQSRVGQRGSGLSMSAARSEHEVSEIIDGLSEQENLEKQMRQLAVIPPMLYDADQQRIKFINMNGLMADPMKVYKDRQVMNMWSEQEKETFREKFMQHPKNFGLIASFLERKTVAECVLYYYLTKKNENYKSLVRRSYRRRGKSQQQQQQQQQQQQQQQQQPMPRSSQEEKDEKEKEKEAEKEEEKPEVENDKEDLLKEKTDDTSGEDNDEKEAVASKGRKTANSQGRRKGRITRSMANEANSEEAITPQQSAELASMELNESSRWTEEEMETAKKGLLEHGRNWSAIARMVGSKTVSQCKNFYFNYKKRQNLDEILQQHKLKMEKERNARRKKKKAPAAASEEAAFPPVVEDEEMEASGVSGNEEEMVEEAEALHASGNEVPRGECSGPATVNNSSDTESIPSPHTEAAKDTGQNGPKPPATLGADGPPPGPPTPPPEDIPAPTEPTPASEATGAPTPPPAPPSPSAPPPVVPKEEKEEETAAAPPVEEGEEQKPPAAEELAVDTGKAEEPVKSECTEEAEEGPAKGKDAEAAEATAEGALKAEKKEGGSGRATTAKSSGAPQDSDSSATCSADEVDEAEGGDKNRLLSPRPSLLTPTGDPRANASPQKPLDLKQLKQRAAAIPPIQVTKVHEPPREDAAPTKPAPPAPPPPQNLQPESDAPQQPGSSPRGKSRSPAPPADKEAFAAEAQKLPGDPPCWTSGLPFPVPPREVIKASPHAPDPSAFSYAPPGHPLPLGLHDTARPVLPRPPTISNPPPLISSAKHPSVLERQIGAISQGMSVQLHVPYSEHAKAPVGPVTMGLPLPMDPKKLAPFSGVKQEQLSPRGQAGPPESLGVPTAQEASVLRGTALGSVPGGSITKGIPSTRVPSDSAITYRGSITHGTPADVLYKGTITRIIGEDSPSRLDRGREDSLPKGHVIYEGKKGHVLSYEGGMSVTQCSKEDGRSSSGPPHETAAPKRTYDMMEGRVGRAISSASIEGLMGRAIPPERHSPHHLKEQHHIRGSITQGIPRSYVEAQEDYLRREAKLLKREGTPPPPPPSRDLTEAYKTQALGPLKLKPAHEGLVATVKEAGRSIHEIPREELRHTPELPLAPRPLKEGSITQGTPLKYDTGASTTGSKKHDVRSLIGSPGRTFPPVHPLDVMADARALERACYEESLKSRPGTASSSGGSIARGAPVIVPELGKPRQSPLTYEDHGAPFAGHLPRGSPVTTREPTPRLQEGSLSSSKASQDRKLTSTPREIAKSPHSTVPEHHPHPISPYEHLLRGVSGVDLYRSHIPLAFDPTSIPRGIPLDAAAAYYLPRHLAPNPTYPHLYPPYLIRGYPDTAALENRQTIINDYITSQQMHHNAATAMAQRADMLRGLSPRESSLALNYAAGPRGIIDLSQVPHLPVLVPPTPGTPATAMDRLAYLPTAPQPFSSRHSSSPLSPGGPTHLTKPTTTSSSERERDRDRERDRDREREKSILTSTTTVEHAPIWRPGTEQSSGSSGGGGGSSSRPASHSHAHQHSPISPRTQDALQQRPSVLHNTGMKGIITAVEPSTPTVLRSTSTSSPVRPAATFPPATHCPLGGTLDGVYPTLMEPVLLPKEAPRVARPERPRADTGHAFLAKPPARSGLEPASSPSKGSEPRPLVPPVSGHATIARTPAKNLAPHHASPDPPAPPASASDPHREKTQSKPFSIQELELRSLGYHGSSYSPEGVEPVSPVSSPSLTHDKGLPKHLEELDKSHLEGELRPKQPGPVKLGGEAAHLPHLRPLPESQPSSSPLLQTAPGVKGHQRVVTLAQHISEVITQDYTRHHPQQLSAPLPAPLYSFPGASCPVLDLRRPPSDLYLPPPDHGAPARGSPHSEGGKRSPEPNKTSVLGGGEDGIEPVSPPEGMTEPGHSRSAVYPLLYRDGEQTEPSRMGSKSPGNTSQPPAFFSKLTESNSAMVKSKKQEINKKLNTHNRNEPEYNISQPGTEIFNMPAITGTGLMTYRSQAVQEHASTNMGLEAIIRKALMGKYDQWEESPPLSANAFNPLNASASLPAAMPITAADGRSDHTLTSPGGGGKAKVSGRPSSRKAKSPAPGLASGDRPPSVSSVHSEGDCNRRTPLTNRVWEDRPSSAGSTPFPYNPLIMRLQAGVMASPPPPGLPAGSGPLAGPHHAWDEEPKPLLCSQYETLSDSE
T4 sequence (Q13547 whole entry): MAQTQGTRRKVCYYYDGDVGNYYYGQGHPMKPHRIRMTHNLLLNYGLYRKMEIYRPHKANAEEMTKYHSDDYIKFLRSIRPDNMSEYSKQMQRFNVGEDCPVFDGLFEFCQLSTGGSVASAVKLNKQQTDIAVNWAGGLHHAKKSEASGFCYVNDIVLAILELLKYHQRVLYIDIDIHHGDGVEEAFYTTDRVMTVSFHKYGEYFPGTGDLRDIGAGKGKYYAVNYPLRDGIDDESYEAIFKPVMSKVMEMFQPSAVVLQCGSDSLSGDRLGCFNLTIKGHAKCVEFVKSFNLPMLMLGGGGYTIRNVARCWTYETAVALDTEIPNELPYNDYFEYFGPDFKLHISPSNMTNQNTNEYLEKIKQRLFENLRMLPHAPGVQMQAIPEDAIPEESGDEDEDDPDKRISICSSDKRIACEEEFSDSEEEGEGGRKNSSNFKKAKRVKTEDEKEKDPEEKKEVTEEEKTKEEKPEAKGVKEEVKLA
Description for HL-60: Growth inhibition of human HL60 cells after 72 hrs by XTT assay
Description for HeLa: Growth inhibition of human HeLa cells after 72 hrs by XTT assay
Description for Jurkat: Growth inhibition of human Jurkat cells after 72 hrs by XTT assay
Description for MCF7: Growth inhibition of human MCF7 cells after 72 hrs by XTT assay
Description for in vitro: Growth inhibition of human HEK293 cells after 72 hrs by XTT assay

As to `CCC[C@@H]1NC(=O)[C@H](C)NC(=O)C[C@H](CC(C)C)NC(=O)[C@H](Cc2cn(CN(C)C)c3ccccc23)NC1=O`, the Ratio IC50 at Histone deacetylase 2 [1] amounted to 40; in series [2], 200; in series [9], 40; on Histone deacetylase 1 [14], 40. The inhibition in [3] is 60%; in [8], “Dose-dependent effect”; in [12], 46%. In the series “in vitro”, this compound showed a GI50 at 72 h of 100000 nM. The results for the Ki (at Histone deacetylase 2 [4]; on Histone deacetylase 1 [6]; in series [13]) were 33 nM, 49 nM and 37 nM, respectively. Also, the GI50 with Jurkat was found to be 8100 nM; in the series on MCF7 it was 47000 nM; in the series with HeLa, 62000 nM; in the series on HL-60 it was 2800 nM. For the same compound, the IC50 is 800 nM in series [5], over 20000 nM in series [7], 680 nM at Histone deacetylase 1 [10] and 1400 nM on Histone deacetylase 2 [11].
`CCC(=O)CCCCC[C@@H]1NC(=O)[C@H]2CCCCN2C(=O)[C@H]([C@@H](C)CC)NC(=O)[C@H](Cc2cn(OC)c3ccccc23)NC1=O` [APICIDIN]: it took 11000 nM to inhibit growth in the series “in vitro” by half (GI50 at 72 h). The concentration for 50% growth inhibition (GI50) turned out to be 830 nM in the series on Jurkat, 6800 nM in the series on MCF7, 1400 nM with HeLa and 280 nM with HL-60.
In “in vitro”, `CCC[C@@H]1NC(=O)[C@H](C)NC(=O)C[C@H](CC(C)C)NC(=O)[C@H](Cc2c[nH]c3ccccc23)NC1=O` (cyclo(A[Nva]W[β3hL])) showed a GI50 at 72 h of over 100000 nM. Further, the GI50 in the series with Jurkat was determined as 12000 nM; in the series on MCF7 it was 40000 nM; in the series with HeLa, 81000 nM; with HL-60 it was 8200 nM. Further, the IC50 was 1400 nM in series [5], over 20000 nM in series [7], 980 nM on Histone deacetylase 1 [10] and 1500 nM at Histone deacetylase 2 [11]. Moreover, the inhibition in [12] turned out to be 37%. Also, the inhibition at 72 h, 100 µM in series [15] stood at 33%.
